Test results as given in EP0542363A2 (GLAXO GROUP LIMITED, priority 1991, dated 1993).
Counter-ions that a name gives are not always drawn.

Tested on: human gel filtered platelets (GFP)
Assay: Inhibition of ADP-induced blood platelet aggregation in gel filtered platelets (Born-type optical aggregometer)
Assay type: cell-based
Conditions: 5 min; human GFP approx. 300,000 platelets/µl; human fibrinogen 0.5mg/ml, Ca2+ 1mM, Mg2+ 0.5mM; compounds incubated 5 minutes at 37°C; ADP 1 x 10⁻⁵M; concentration producing 50% inhibition of platelet aggregation; read-out: IC₅₀
Procedure: Inhibition of blood platelet aggregation by compounds of the invention was determined according to the following procedure. Citrated whole blood (1 part 3.8% trisodium citrate : 9 parts blood) was obtained from human volunteers, free of medication for at least 10 days prior to collection. The blood was incubated with 0.1mM aspirin and 0.05µM prostacyclin and then centrifuged at 1000g for 4 minutes (20°C). The supernatant platelet rich plasma (PRP) was further centrifuged at 1300g for 10 minutes (20°C) to sediment the platelets. The supernatant was discarded and the pellet washed with a physiological salt solution (HEPES 5mM, NaHCO₃ 12mM, NaCl 140mM, KH₂PO₄ 0.74mM, D-Glucose 5.6mM, KCl 2.82mM and BSA 20g/l, pH 7.4) to remove residual plasma. After washing, the pellet was resuspended in physiological salt solution and then applied to a sepharose CL-2B column, pre-equilibrated with physiological salt solution at room temperature. The platelets (GFP) eluted within the void volume and were diluted to approximately 300,000 platelets/µl in buffer. Purified human fibrinogen (Knight L.C. et al, 1981 Thromb. Haemostasis, 46(3), 593-596) was added to a final concentration of 0.5mg/ml together with Ca2+ and Mg2+ at 1mM and 0.5mM respectively. […] The potency of the compounds may be expressed as an IC₅₀ value defined as the concentration of compound required to produce 50% inhibition of platelet aggregation.

| Molecule | IC50 [nM] |
| --- | --- |
| C[C@@H]1CN(CC(=O)O)CC[C@@H]1N1CCN(c2ccc(C(=N)N)cc2)CC1 (relative stereo) [Example 30, cis-4-[4-[4-Aminoiminomethyl)phenyl]-1-piperazinyl]-3-methyl-1-piperidineacetic acid trihydrochloride salt] | 23 |
| C[N@+]1(CC(=O)O)CC[C@H](N2CCN(c3ccc(C(=N)N)cc3)CC2)CC1 [Example 16a, trans-4-[4-[4-(Aminoiminomethyl)phenyl]-1-piperazinyl]-1-(2-hydroxy-2-oxoethyl)-1-methylpiperidinium trifluoroacetate salt] | 44 |
| NC(=NO)c1ccc(N2CCN(C3CCN(CC(=O)O)CC3)CC2)cc1 [Example 17, 4-[4-[4-[Amino(hydroxyimino)methyl]phenyl]-1-piperazinyl]-1-piperidineacetic acid trifluoroacetate] | 5660 |
| N=C(NCC(F)(F)F)c1ccc(N2CCN(C3CCN(CC(=O)O)CC3)CC2)cc1 [Example 18, 4-[4-[4-[Imino[(2,2,2-trifluoroethyl)amino]methyl]phenyl]-1-piperazinyl]-1-piperidineacetic acid trifluoroacetate salt] | 316 |
| N=C(N)c1ccc(N2CCN(C3CCN(CC(=O)O)CC3)CC2)cn1 [Example 19, trifluoroacetate salt] | 76 |
| CC1CN(c2ccc(C(=N)N)cc2)CCN1C1CCN(CC(=O)O)CC1 (centres unmarked) [Example 20, trifluoroacetate salt] | 71 |
| C[N@+]1(CC(=O)O)CC[C@H](C2CCN(c3ccc(C(=N)N)cc3)CC2)CC1 [Example 21, trans-4-[1-[4-(Aminoiminomethyl)phenyl]-4-piperidinyl]-1-(2-hydroxy-2-oxoethyl)-1-methylpiperidinium trifluoroacetate salt] | 41 |
| N=C(N)c1ccc(C2CCN(C3CCN(CC(=O)O)CC3)CC2)cc1 [Example 22, trifluoroacetate salt] | 71 |
| CCOC(=O)CN1CCC(N2CCN(c3ccc(C(=N)N)cc3)CC2)CC1 [Example 23, trifluoroacetate salt] | 16200 |
| N=C(N)c1ccc(N2CCN(C3CCN(CC(=O)O)CC3)CC2)c(Br)c1 [Example 24, trifluoroacetate salt] | 342 |
| Cc1cc(C(=N)N)ccc1N1CCN(C2CCN(CC(=O)O)CC2)CC1 [Example 25, trifluoroacetate salt] | 569 |
| CC(C(=O)O)N1CCC(N2CCN(c3ccc(C(=N)N)cc3)CC2)CC1 (centres unmarked) [Example 26] | 177 |
| COC(=O)NC(=N)c1ccc(N2CCN(C3CCN(CC(=O)O)CC3)CC2)cc1 [Example 34, 4-[4-[4-[Imino[(methoxycarbonyl)amino]methyl]phenyl]-1-piperazinyl]-1-piperidineacetic acid trifluoroacetate salt] | 1600 |
| N=C(N)c1ccc(N2CCN(C3CCN(CC(=O)O)CC3)CC2)nc1 [Example 41, trifluoroacetate salt] | 30 |

Same assay, conditions: human GFP approx. 300,000 platelets/µl; human fibrinogen 0.5mg/ml, Ca2+ 1mM, Mg2+ 0.5mM; compounds incubated 5 minutes at 37°C; ADP 1 x 10⁻⁵M; concentration producing 50% inhibition of platelet aggregation; read-out: IC₅₀

| Molecule | IC50 [nM] |
| --- | --- |
| 4-[4-[4-[(Diethylphosphinyl)amino]iminomethyl]phenyI]-1-piperazinyl]-1- piperidineacetic acid trifluoroacetate salt [Example 36] | 2680 |

Same assay, conditions: human GFP approx. 300,000 platelets/µl; human fibrinogen 0.5mg/ml, Ca2+ 1mM, Mg2+ 0.5mM; compounds incubated 5 minutes at 37°C; ADP 1 x 10⁻⁵M; concentration producing 50% inhibition of platelet aggregation; trifluoroacetate salt; read-out: IC₅₀

| Molecule | IC50 [nM] |
| --- | --- |
| N=C(N)c1ccc(N2CCN(C3CC[N+](CC(=O)O)(Cc4ccccc4)CC3)CC2)cc1 (stereo not drawn) [Example 28, trans-4-[4-[4-(Aminoiminomethyl)phenyl]-1-piperazinyl]-1-(2-hydroxy-2-oxoethyl)-1-(phenylmethyl)piperidinium trifluoroacetate salt] | 38 |
| N=C(N)c1ccc(N2CCN(C3CC[N+](CC(=O)O)(Cc4ccccc4)CC3)CC2)cc1 (stereo not drawn) [Example 29, cis-4-[4-[4-(Aminoiminomethyl)phenyl]-1-piperazinyl]-1-(2-hydroxy-2-oxoethyl)-1-(phenylmethyl)piperidinium trifluoroacetate salt] | 354 |
